Literature values in US20030152643A1, “Combination of an alpha-adrenergic antagonist and a nitrogen oxide donor for treating female sexual dysfunctions” (priority 1998, published 2003).

System: erectile dysfunctions
Settings: administration in men; Zorgniotti and Lizza 1994

N=C(N)NCCC[C@H](N)C(=O)O [L-arginine]
effect on erectile dysfunctions in men: favorable effect on erectile dysfunctions in certain cases
